Results reported in US8603483B2, “Anti-integrin immunoconjugates, methods and uses” (Janssen Biotech, Inc., priority 2004, dated 2013).
Blank lines part the entries; values can stand above or below the compound they belong to.

How the values were obtained:
[1] = test system: A375.S2 human melanoma xenografts; assay: Advanced s.c. A375.S2 melanoma xenograft in athymic rats, second experiment (FIG. 7); type: in vivo, rat; conditions: i.v., days 14, 16, 18, 23, 31
Method: FIG. 7 is a graph showing the growth of human A375.S2 melanoma cells in athymic nude rats. On day 14, when the average tumor volumes reached 250 mm^3, the animals were randomly grouped and the first dose was administered. All animals were sacrificed on day 35. Tumor volumes were expressed as mean+/−SEM (n=9 or 10). The arrows indicate the days of intravenous drug administration.
(§1) The efficacy of CNTO 364 compared to CNTO95 against advanced s.c. A375.S2 human melanoma cells was investigated. CNTO 95-DM1 was prepared by ImmunoGen, Inc. Lot #1716-74B, stock concentration: 2.59 mg/ml. 5 mg/kg of CNTO 95-DM1 is equivalent to 74 μg/kg of DM1. CNTO 95 was from Centocor, Lot #5380-027, stock concentration=20 mg/ml. Human IgG-DM1: ChromPure human IgG was from Jackson ImmunoResearch Laboratories. Human IgG-DM1 was prepared by ImmunoGen, Lot #1762-50, stock concentration 2.8 mg/ml. 5 mg/kg of this conjugate is equivalent to 76 μg/kg of DM1. Maytansine: ImmunoGen, Lot #1710-121, stock concentration=16.38 μg/ml in PBS, pH 6.5. The stock solution of Maytansine was diluted with PBS to 15 and 7.5 μg/ml. PBS: ImmunoGen, pH 6.5. A375.S2 human melanoma cells were purchased from ATCC and subpassaged and stored in frozen aliquots at Centocor Cell Biology Services.
In a second experiment in rats, the average tumor volumes reached to 250 mm^3 on day 14. […]

[2] = test system: A375.S2 human melanoma tumor; assay: A375.S2 human melanoma xenograft in nude rats, weekly CNTO 95; type: in vivo, rat; conditions: 10 mg/kg i.v. weekly, day 46, p=0.0007
Method: FIG. 5 is a graph showing the change volume over time of a human melanoma tumor in nude rats and the effect of administering CNTO 95. Rats were inoculated subcutaneously with A375.S2 cells (3×106), and therapy with CNTO 95 or control was initiated three days later. Rats were treated with CNTO 95 or vehicle once per week at a dose of 10 mg/kg i.v. Each data point is the mean tumor volume from 9 tumor-bearing animals (±SEM).
For rat studies, female nude rats, aged 6-7 weeks, were purchased from Harlan. Twenty rats were inoculated s.c. with A375.S2 cells (3×10^6) in the flank region (day 1). On day 4, rats were randomly assigned to 2 groups. One group was injected i.v. with CNTO 95 (10 mg/kg in PBS), while the other group received an isotype-matched control IgG (10 mg/kg). Dosing was continued weekly thereafter until day 46 (total of 6 doses). Tumors were measured by calipers twice a week and tumor volumes calculated by the formula (length×width2)/2. Body weights were also recorded weekly.
In the rat, CNTO 95 is capable of blocking both rat angiogenic integrins and human tumor cell-expressed integrins. Weekly treatment of tumor-bearing nude rats with CNTO 95 at 10 mg/kg reduced tumor growth compared to the isotype-matched human IgG control MAb (FIG. 5).

[3] = test system: A375.S2 human melanoma cells; assay: Advanced s.c. A375.S2 melanoma xenograft, first experiment (FIG. 6); type: in vivo, athymic nude rats; conditions: 10 mg/kg i.v., tumors 250-300 mm^3 at start
Method: as §1
Nine-week-old athymic nude rats were subcutaneously inoculated with A375.S2 human melanoma cells. On day 14, when average tumor volumes reached to 250-300 mm^3, animals were randomized to groups of 9/10 and treatment initiated. […] The arrows indicate intravenous drug administration.

[4] = test system: A375.S2 human melanoma tumor; assay: A375.S2 human melanoma xenograft in nude mice, CNTO 95 from day 3; type: in vivo, mouse; conditions: 10 mg/kg i.p. three times per week
Method: FIG. 4 is a graph showing the change volume over time of a human melanoma tumor in nude mice and the effect of administering CNTO 95. Mice were inoculated subcutaneously with A375.S2 cells (3×10^6), and dosing with CNTO 95 or control was initiated three days later. Mice were treated with CNTO 95 or vehicle three times per week at a dose of 10 mg/kg i.p. Each data point is the mean tumor volume from 10 tumor-bearing animals (±SEM).
At day 26, CNTO 95 inhibited tumor growth by approximately 80% compared to tumors from control-treated animals.

angiogenesis [5] = assay: Primate angiogenesis model; type: in vivo, cynomulgus monkeys; conditions: stimulated by bFGF
[6] = test system: tumor and endothelial cells; assay: In vitro functional assays on tumor and endothelial cells (summary); type: cell-based
Excerpt: In addition, CNTO 95 inhibited angiogenesis and tumor growth in vivo.

angiogenesis [7] = assay: Rat Matrigel angiogenesis model; type: in vivo; conditions: stimulated by bFGF and M21 melanoma cells
[8] = test system: A549 human non-small cell lung carcinoma cells; assay: ATPLite cytotoxicity, A549 cells, 96 hrs; type: cell-based; conditions: A549, 96 hrs
Method: (§2) Human HT29 human colon carcinoma and human non-small cell lung carcinoma cells A549 (ATCC) were cultured in αMEM supplemented with 10% FBS at 37° C. in the presence of 5% CO2. Cells were seeded into white 96-well tissue culture plates (5000 cells/well) in culture medium and incubated for 16 hrs. Serial dilutions of immunoconjugates were added to each appropraite wells (0-20 μg/ml). Tissue culture plates were incubated at 37° C. for 96 hrs. ATPLIte assay was performed acording manufacturer's instruction. Data was analyzed with GraphPad Prism software using non-liner regression (Table 8) to determine the concentration at half maximal cell number as measured by luminosity.

[9] = test system: HT29 human colon carcinoma cells; assay: ATPLite cytotoxicity, HT29 cells, 96 hrs; type: cell-based; conditions: HT29, 96 hrs
Method: as §2

HT29 human colon tumor = assay: HT29 colon carcinoma xenograft in athymic rats, comparison of conjugate linkages; type: in vivo, rat
Method: An advanced tumor model using subcutaneously implanted HT29 human colon tumor-derived cells in immunocompromised rats was chosen to examine tolerability and potency of various linkages used to prepare immunoconjugates of CNTO 95.
CNTO 95-SPP-DM1 (CNTO 364), CNTO 95-SSNPB-DM4 (CNTO 365), CNTO 95-SSNPP-DM4 (CNTO 366), and the Mab F105 equivalents of these were prepared by ImmunoGen (Cambridge, Mass.). One hundred female athymic rats (4-6 weeks of age) were obtained from Harlan Laboratories.
Human HT29 (ATCC) were cultured in αMEM supplemented with 10% FBS at 37° C. in the presence of 5% CO2. Cells were prepared at a concentration of twenty-five million cells per ml in serum free αMEM for inoculation. Female athymic rats were inoculated with 5×10^6 HT29 cells subcutaneously (0.2 ml of 25×10^6 cells/ml) on the rear flank area (dorsal side, approximately 0.5 inches caudal to the last rib and 0.5 inches from the backbone). All rats were monitored twice per week for the appearance of tumor. The animals were stratified into 13 groups, 6 animals per group based on a mean tumor volume for each group of approximately 250 mm^3. Doses of immunoconjugates were calculated based on the contents of DM1 or DM4 in each conjugate. The L and H represent 175 and 350 μg/kg of DM1 or DM4, respectively. […] All measurements are expressed as the group mean+/−SEM (n=6).

αvβ5 = αvβ5 (Homo sapiens, UniProt P06756, V783I); assay: 125-I saturation binding on αvβ5 coated plates
Method: The binding affinity values for purified integrins were compared to binding to receptors expressed on various cell lines using 125-I CNTO 95. A375S2 and M21 cells express both αvβ3 and αvβ5, HT-29 cells express αvβ5. For comparison, other Mabs capable of binding integrins were used. The Kd was calculated from a saturation binding curve in each case using multiple replicates of multiple lots of antibody.

alphaVbeta3 = alphaVbeta3 (Homo sapiens, UniProt P05106+P06756, V783I); assay: ELISA binding of purified hybridoma antibodies to alphaVbeta3; conditions: ELISA on alphaVbeta3
Excerpt: Human placenta (disrupted using a meat grinder) or M21 human melanoma cells expressing the αVβ3 integrin were extracted with OTG (Octylthioglucoside Pierce) in buffered saline as described (WO0212501). These preparations were emulsified with an equal volume of complete Freund's adjuvant and used to immunize 15 to 17 week old surgically castrated male mouse (GenPharm, Foster City, Calif.) on days 0 and 14 and in incomplete Freunds on days 28, 48, and 56. Three days later splenocytes were harvested from a mouse showing a titer of 1:1280 against alphaVbeta3 using a solid phase EIA format. Fusion was carried out at a 1:1 ratio of murine myeloma cells (SP2/0) to viable spleen cells. Hybridoma supernatants were screened using the EIA microplate assay or EIA capture assay and selected antibody producing lines expanded and retested for the desired properties.
ELISA analysis confirmed that purified antibody from two hybridomas, C371A (also called Mab CNTO 95) and C372A, bind alphaVbeta3 in a concentration-dependent manner. Fifty percent binding is achieved at 0.07 and 0.7 μg/mL for C372A and CNTO 95 respectively.

Sequence of alphaVbeta3 (P06756 31-889 V783I limits assumed): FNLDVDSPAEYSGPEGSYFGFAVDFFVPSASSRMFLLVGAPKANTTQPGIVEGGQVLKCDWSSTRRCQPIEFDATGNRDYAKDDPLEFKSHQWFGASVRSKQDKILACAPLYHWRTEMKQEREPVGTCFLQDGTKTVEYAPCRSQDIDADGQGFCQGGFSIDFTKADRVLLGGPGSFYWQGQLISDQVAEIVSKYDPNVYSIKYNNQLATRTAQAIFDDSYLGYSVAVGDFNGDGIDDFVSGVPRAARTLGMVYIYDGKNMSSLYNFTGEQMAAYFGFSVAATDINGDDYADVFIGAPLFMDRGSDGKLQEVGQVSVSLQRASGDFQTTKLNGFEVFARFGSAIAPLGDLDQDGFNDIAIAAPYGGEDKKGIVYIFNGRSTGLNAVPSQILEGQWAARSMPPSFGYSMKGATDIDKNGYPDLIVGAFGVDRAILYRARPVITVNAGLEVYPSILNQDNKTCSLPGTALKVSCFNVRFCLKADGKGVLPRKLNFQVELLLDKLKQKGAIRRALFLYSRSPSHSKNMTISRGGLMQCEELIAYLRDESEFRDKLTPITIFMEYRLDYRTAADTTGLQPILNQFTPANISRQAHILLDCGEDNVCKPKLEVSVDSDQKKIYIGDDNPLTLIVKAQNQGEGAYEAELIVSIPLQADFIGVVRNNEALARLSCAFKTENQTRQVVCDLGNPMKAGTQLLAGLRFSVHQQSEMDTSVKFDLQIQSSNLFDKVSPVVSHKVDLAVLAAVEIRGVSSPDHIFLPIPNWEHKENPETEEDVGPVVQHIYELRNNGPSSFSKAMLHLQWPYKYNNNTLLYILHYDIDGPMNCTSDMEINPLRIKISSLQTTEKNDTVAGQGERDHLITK
Sequence of alphaVbeta3 (P06756 891-1048 limits assumed): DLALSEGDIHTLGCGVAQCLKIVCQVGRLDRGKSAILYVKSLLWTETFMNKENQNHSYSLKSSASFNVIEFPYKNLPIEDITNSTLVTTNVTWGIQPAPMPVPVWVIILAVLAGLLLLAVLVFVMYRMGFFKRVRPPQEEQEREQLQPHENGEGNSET
Sequence of alphaVbeta3 (P05106 27-788): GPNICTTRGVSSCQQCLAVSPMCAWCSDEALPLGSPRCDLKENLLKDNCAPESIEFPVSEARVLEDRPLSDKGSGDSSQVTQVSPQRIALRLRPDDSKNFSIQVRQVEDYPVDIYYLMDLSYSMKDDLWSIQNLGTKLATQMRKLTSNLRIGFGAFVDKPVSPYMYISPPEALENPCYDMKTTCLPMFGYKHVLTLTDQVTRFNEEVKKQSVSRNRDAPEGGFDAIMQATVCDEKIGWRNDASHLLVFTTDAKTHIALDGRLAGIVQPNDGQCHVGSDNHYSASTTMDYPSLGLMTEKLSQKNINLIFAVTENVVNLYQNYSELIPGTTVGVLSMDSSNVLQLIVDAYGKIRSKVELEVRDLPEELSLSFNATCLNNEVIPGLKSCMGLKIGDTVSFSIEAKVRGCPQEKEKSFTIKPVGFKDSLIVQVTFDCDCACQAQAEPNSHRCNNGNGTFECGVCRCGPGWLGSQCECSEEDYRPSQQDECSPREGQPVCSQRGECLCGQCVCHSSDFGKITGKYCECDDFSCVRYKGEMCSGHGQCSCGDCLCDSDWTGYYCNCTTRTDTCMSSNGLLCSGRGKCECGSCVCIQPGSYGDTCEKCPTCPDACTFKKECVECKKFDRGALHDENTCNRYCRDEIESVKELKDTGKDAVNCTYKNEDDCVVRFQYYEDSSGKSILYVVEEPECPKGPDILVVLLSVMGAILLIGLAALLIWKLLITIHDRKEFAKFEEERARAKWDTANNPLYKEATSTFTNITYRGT
Sequence of αvβ5 (P06756 31-889 V783I limits assumed): as the sequence (P06756 31-889 V783I limits assumed) above
Sequence of αvβ5 (P06756 891-1048 limits assumed): as the sequence (P06756 891-1048 limits assumed) above
Sequence of αvβ5 (P18084 24-799 partner): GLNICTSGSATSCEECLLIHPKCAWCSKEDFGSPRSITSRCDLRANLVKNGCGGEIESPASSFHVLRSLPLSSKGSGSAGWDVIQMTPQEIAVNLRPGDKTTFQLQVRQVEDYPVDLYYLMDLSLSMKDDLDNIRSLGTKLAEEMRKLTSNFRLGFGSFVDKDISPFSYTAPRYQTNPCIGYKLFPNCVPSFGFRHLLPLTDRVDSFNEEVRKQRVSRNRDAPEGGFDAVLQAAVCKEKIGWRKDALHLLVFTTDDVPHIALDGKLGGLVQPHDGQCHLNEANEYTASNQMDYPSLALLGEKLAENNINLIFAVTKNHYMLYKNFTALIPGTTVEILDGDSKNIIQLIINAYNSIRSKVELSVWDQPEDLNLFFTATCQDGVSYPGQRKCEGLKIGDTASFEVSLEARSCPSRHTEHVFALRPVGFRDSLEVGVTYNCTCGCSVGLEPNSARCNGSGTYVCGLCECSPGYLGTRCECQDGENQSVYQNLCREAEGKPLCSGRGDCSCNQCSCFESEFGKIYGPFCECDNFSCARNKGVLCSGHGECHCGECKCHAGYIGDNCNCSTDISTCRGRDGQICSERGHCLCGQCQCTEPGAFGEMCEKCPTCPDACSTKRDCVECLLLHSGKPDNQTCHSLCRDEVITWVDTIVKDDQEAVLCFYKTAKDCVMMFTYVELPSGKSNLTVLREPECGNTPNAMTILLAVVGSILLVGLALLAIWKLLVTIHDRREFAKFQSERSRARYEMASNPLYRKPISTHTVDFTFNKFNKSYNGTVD

Compound: COc1cc2cc(c1Cl)N(C)C(=O)C[C@H](OC(=O)[C@H](C)N(C)C(C)=O)[C@]1(C)O[C@H]1[C@H](C)[C@@H]1C[C@@](O)(NC(=O)O1)[C@H](OC)/C=C/C=C(\C)C2 [Maytansine, reference compound]
effect on xenograft tumors (control compounds) [1]: did not show any significant effects

Compound: CNTO 95: fully human anti-alphaV integrin monoclonal antibody, human variable and IgG1 kappa constant regions
final tumor size vs isotype-matched control IgG [2]: significant reduction in final tumor size
effect on tumor growth / average tumor volume [3]: had no effect
inhibition of tumor growth compared to control-treated animals ([4]; day 26): approximately 80%
tumor growth vs control ([4]; day 26, P=0.0005): significantly inhibited growth of tumors
effect on angiogenesis (angiogenesis [5]): blocked angiogenesis
effect on adhesion, migration, proliferation and invasion [6]: inhibited adhesion, migration, proliferation and invasion
effect on xenograft tumors (control compounds) [1]: did not show any significant effects
effect on angiogenesis (angiogenesis [7]): blocked angiogenesis

Compound: CNTO 365: CNTO 95 conjugated to maytansinoid DM4 with SSNPB or SPDB linker; methyl groups 0:2
EC50, concentration at half maximal cell number [8]: 0.3 mg/L
EC50, concentration at half maximal cell number [9]: 0.24 mg/L
complete regression, animals out of 6 (HT29 human colon tumor; high dose (350 microgm/kg of DM4), single injection): 4
regressed preformed colon tumors, animals out of 6 (HT29 human colon tumor; low dose (175 microgm/kg of DM4), Day 7 and Day 21): 2

binding on αvβ5 coated plates (αvβ5): no binding and no dose-response
Compound: abciximab: other Mab capable of binding integrins, used for comparison

Fifty percent (maximal) binding concentration (alphaVbeta3): 0.07 µg/mL
Compound: c7E3 IgG: anti-alphaIIbeta3 antibody
